Assay results as given in US7105573B2, “Methods and compositions for the treatment of alopecia and other disorders of the pilosebaceous apparatus” (Orentreich Foundation for the Advancement of Science, Inc., priority 2000, dated 2006).
Structures can show the parent of a compound that is named as a salt. Where two headings read alike, the source gives them in different places. Values belong to the compound of their own block, whether it stands above or below them.

What was measured:
[1] = Description: For production of the test materials described herein, it is dissolved in water to twice the desired final concentration, then mixed with an equal volume of a solution of 4% butylene glycol in special denatured alcohol (SDA) for a final concentration of 50% SDA and 2% butylene glycol. […] Preferred concentrations are about 0.8% to about 2.0%.
(§1) If more neutral solutions are required, a penetration enhancing agent should be used to help deliver the drug to the dermis. […] Some, like dimethylsulfoxide (DMSO), are applied to the skin for 10–15 minutes prior to administration of the drug, while others, such as myristylamine oxide (MAO), SEPA and N-methyl pyrrolidone (NMP), can be added to the inventive composition in the appropriate concentration before applying to the skin.
It is important to remove the salts that are produced during this process. Therefore, the mixture is lyophilized, and the dry powder reconstituted in absolute ethanol.

[2] = remark: listed apart in the source
Description: as §1

[3] = tested on: age-dependent hair loss in female ob/ob (obese) mice; assay: Oral metformin hydrochloride and age-dependent hair loss in female ob/ob mice (Example 5); assay type: in vivo
Excerpt: Twenty-one female C57BL/6J ob/ob mice were purchased from the Jackson Laboratory (Bar Harbour, Me.) at five weeks of age. […] Dosages were adjusted on a weekly basis to reflect changes observed in body weight. All animals were group housed and were allowed access to standard laboratory chow and water ad libitum. The progression of hair loss was documented throughout the study.

[4] = Skin irritation of metformin base and salts in 50% SDA / 2% butylene glycol vehicle; assay type: in vivo; conditions: applied in 50% SDA, 2% butylene glycol in water
[5] = tested on: skin of the hairless mouse; assay: Skin redness in hairless mouse, 11 days of treatment; assay type: in vivo; conditions: 50 μL, 2× per day
[6] = tested on: alopecic female ob/ob mice; assay: Topical biguanide / metformin hair growth in obese (ob/ob) mouse model (Example 3); assay type: in vivo
Description: When pharmaceutically acceptable salts of biguanide were applied in reasonable concentrations (e.g., about 0.5% to about 10%) in a suitable topical vehicle (e.g., solution, tincture, gel, lotion, cream or ointment) containing a suitable penetration enhancing agent (e.g., surfactant, DMSO, N-methyl pyrrolidone), the growth of hair was stimulated in the obese (ob/ob) mouse model.
Two alopecic female ob/ob mice were treated with 0.8% topical metformin for three months beginning at 13 months of age. Applications of 50 ul were made twice per day (except weekends) to the alopecic (intrascapular) site.

[7] = tested on: hair loss in aged female obese (C57BL/6J-ob/ob) mice; assay: Oral metformin and hair loss in aged female obese mice (Example 1); assay type: in vivo
Description: The objective of the experiments in this Example is to examine the effects of the biguanide […] metformin on hair loss in aged female obese (C57BL/6J-ob/ob) mice. The hypothesis tested is that metformin, when administered in these mice at a relatively young age, will increase insulin sensitivity, thereby preventing or slowing the progression of hair loss.
Animals: Female C57BL/6J Lep , ob/ob. (homozygous) and C57BL/6J Lep <ob/+> (heterozygous) mice are purchased from the Jackson Laboratory (Bar Harbor, Me.). All animals are housed at a density of 2–3 animals per cage and are maintained on a photoperiod of 12 h light: 12 h dark. Food and water are provided ad libitum.
The dosage is adjusted each week to reflect changes in body weight. Since the animals are group housed, the adjustment is made based on the mean weight of the treatment group, rather than on an animal-to-animal basis. The water is changed twice per week. Periodically the concentration of the metformin in the drinking water is verified by HPLC.
Experimental groups: The ob/+ animals are not entered into the study until two weeks after the ob/ob mice. […] Thus, once the ob/+ are 7 weeks of age, they are entered in the study.
Parameters monitored: Body weight, food and water consumption are monitored twice per week. Blood samples are collected from the orbital sinus of unanesthesized mice at the baseline and on a monthly basis for the duration of the study. These blood collections are designed to monitor serum glucose and insulin levels. C-peptide and insulin-like growth factor 1 (IGF-1) are also monitored periodically throughout the study. Blood samples for C-peptide analysis are collected following an overnight fast. Selected animals are photographed throughout the study to document the slowing or progression of hair loss.

[8] = tested on: obese (ob/ob -Thieller background) mouse; conditions: 240 mg/kg/d in drinking water for 4 weeks; cited from earlier work
[9] = tested on: hair loss in C57BL/6J Lep (ob) female mice; assay: Oral troglitazone ob/ob female mice study (Example 6); assay type: in vivo; conditions: 350 days; 0.2% troglitazone in diet; control 100%
Description: This study involved oral administration of troglitazone (Rezulin®) to C57BL/6J Lep (ob) female mice.
Non-alopecic female ob/ob mice (7 weeks at start of study) are maintained on a photoperiod of 12 h light:12 h dark. Food (Purina 5001 Meal diet or Purina 5001 with 0.2% troglitazone) and water (acidified pH 2.5) are provided ad libitum.
Troglitazone (Rezulin®) is purchased from Parke-Davis (Morris Plains, NJ) in tablet form. The entire tablet (including the coat) is crushed in a blender prior to being incorporated into the diet. The amount of troglitazone added to the diet is adjusted to account for the weight of the tablet and the actual amount of the drug (400 mg/tablet) incorporated into the tablet.
The progression of hair loss is monitored by the investigator on a weekly to biweekly basis. The dorsal hair coat is photographed on a monthly basis to chart the onset and/or progression of alopecia.

Structure (SMILES): N=C(N)NC(=N)N [Biguanide, Biguanide (NH2C(═NH)NHC(═NH)NH2)]
- long-term chemical stability in water [1]: limited long-term chemical stability in water
- solubility in water [1]: water soluble

Structure (SMILES): CN(C)C(=N)NC(=N)N [Metformin base]
- absorbed through skin [2]: 75%–88%
- irritation to the skin [4]: significant irritation

Structure (SMILES): CN(C)C(=N)N=C(N)N [metformin]
- penetration of the applied metformin dose [2]: up to 20%
- share of composition passing through the dermis [2]: over 90%
- pigmentation at the alopecic site (onset of anagen) ([6]; 0.8% topical, 50 ul twice per day, after two months of treatment, two alopecic female ob/ob mice, 13 months of age at start): presence of pigmentation at the alopecic site
- emergence of new hairs at the alopecic site ([6]; 0.8% topical, the week following two months of treatment): small hairs emerging from the skin
- persistence of new hairs after withdrawal of treatment ([6]; observed for 6 weeks after the three-month treatment): new hairs remained intact
- onset of hair loss ([7]; female ob/ob mice, 240 mg/kg/d in drinking water): delayed
- hair loss in ob/+ mice ([7]; ob/+ (heterozygous) mice, 240 mg/kg p.o.): not observed
- hair loss observed (% of animals affected) ([7]; ob/ob mice at 10 months of age (nearly 8 months of treatment), 240 mg/kg p.o., control 36%): 8%
- concentration of hepatocyte high and low affinity insulin receptors [8]: increase
- hypoglycemic response to exogenous insulin [8]: did not alter
- plasma insulin levels [8]: lowered

Structure (SMILES): Cc1c(C)c2c(c(C)c1O)CCC(C)(COc1ccc(CC3SC(=O)NC3=O)cc1)O2 (stereo not shown) [troglitazone]
- animals exhibiting some degree of hair loss [9]: 60%

Continued, in another order:

- penetration to the dermis as a function of pH [2]: improves as pH increases
- absorbed through skin ([2]; 6 h): < 1%
- percutaneous absorption (absorbed) ([2]; 6 h): <1%
Structure (SMILES): CN(C)C(=N)N=C(N)N [Metformin HCl, Metformin hydrochloride]
- incidence of hair loss ([3]; 300 days of age, controls about 40%): about 20%
- incidence of hair loss ([3]; 370 days of age, excluding animals with only possible thinning of the hair coat, controls greater than 60%): 30%
- onset of hair loss ([3]; female ob/ob mice, 240 mg/kg/d in acid water): delayed
- incidence of spontaneous skin condition (may resemble acanthosis nigricans or migratory ichthyosis) ([3]; relative to control animals, the majority of which were affected): markedly less incidence
- irritation to the skin [4]: no irritation

- absorbed through skin [2]: < 1%
- penetration on addition of SR-38 to the formula [2]: similarly improved
Structure (SMILES): CN(C)C(=N)N=C(N)N.O=C(O)c1cc2ccccc2c(Cc2c(O)c(C(=O)O)cc3ccccc23)c1O [Metformin pamoate, metformin pamoate]
- irritation to the skin [4]: no irritation

- redness on the skin [5]: only mild, temporary redness
Structure (SMILES): CCCCCCCCCCC1COC(=O)N1 (stereo not shown) [SR-38, 4-decyloxazolidin-2-one]
